Source: PubChem BioAssay (NCI)
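Test compounds were applied to cells in 96-well plates for 48 hours at 5 doses. Definition used: TGI = concentration required for complete inhibition of growth.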

Tests used:
Experiment in all cases: NCI anticancer screen, dose series, 48 h
[1] = tested on: SF-295 CNS
[2] = tested on: SK-MEL-2 melanoma
[3] = tested on: SNB-75 CNS
[4] = tested on: PC-3 prostate
[5] = tested on: RXF 393 renal
[6] = tested on: COLO 205 colon
[7] = tested on: HOP-62 NSCLC
[8] = tested on: LOX IMVI melanoma
[9] = tested on: CCRF-CEM leukemia
[10] = tested on: NCI-H23 lung
[11] = tested on: KM12 colon
[12] = tested on: OVCAR-3 ovarian
[13] = tested on: UO-31 renal
[14] = tested on: CAKI-1 renal
[15] = tested on: NCI-H460 lung
[16] = tested on: SF-539 CNS
[17] = tested on: IGROV1 ovarian
[18] = tested on: SF-268 CNS
[19] = tested on: UACC-257 melanoma
[20] = tested on: EKVX NSCLC
[21] = tested on: T-47D breast
[22] = tested on: A498 renal
[23] = tested on: SK-MEL-28 melanoma
[24] = tested on: MOLT-4 leukemia
[25] = tested on: U251 CNS
[26] = tested on: TK-10 renal
[27] = tested on: K-562 leukemia
[28] = tested on: NCI-H226 lung
[29] = tested on: ACHN renal
[30] = tested on: SNB-19 CNS
[31] = tested on: BT-549 breast
[32] = tested on: HS 578T breast
[33] = tested on: SN12C renal
[34] = tested on: HCT-15 colon
[35] = tested on: MDA-MB-435
[36] = tested on: OVCAR-5 ovarian
[37] = tested on: MDA-MB-231 breast
[38] = tested on: DU-145 prostate
[39] = tested on: SK-OV-3 ovarian
[40] = tested on: SW-620 colon
[41] = tested on: RPMI-8226 leukemia
[42] = tested on: HCT-116 colon
[43] = tested on: HT29 colon
[44] = tested on: MALME-3M melanoma
[45] = tested on: NCI-H522 lung
[46] = tested on: NCI/ADR-RES ovarian
[47] = tested on: SR leukemia
[48] = tested on: OVCAR-8 ovarian
[49] = tested on: MCF7 breast
[50] = tested on: M14 melanoma
[51] = tested on: HOP-92 NSCLC
[52] = tested on: UACC-62 melanoma
[53] = tested on: A549 NSCLC
[54] = tested on: HCC-2998 colon
[55] = tested on: MDA-N
[56] = tested on: 786-0 renal
[57] = tested on: OVCAR-4 ovarian
[58] = tested on: SK-MEL-5 melanoma

Measured: TGI

NC(N)=N/N=C\c1ccc(C2CCNCC2)cc1
> 100 µM: all assays above

CN(C(=O)Nc1ccc(Cl)c(Cl)c1)C1CCCC[C@@H]1N1CCCC1 (some centres undefined)
73.9 µM: [32]
39.4 µM: [19]
36.1 µM: [50]
35.7 µM: [6]
40.2 µM: [52]
37.8 µM: [44]
94.7 µM: [18]
64.1 µM: [41]
39.5 µM: [28]
30.6 µM: [58]
55.9 µM: [22]
87.4 µM: [49]
96.8 µM: [24]
47.6 µM: [23]
84.2 µM: [13]
not listed: [16] | [54]
> 100 µM: all other assays above
